From PMC9120017, “Inhibition mechanism of the chloride channel TMEM16A by the pore blocker 1PBC” (Nature Communications, 2022)
Where two headings read alike, the source gives them in different places.

Target: T1, mouse TMEM16A mutant I516A (Mus musculus, UniProt Q8BHY3, I516A)
T1 construct: expressed in transfected cells; host or cells: HEK293T
T1 sequence (Q8BHY3 1-960 I516A): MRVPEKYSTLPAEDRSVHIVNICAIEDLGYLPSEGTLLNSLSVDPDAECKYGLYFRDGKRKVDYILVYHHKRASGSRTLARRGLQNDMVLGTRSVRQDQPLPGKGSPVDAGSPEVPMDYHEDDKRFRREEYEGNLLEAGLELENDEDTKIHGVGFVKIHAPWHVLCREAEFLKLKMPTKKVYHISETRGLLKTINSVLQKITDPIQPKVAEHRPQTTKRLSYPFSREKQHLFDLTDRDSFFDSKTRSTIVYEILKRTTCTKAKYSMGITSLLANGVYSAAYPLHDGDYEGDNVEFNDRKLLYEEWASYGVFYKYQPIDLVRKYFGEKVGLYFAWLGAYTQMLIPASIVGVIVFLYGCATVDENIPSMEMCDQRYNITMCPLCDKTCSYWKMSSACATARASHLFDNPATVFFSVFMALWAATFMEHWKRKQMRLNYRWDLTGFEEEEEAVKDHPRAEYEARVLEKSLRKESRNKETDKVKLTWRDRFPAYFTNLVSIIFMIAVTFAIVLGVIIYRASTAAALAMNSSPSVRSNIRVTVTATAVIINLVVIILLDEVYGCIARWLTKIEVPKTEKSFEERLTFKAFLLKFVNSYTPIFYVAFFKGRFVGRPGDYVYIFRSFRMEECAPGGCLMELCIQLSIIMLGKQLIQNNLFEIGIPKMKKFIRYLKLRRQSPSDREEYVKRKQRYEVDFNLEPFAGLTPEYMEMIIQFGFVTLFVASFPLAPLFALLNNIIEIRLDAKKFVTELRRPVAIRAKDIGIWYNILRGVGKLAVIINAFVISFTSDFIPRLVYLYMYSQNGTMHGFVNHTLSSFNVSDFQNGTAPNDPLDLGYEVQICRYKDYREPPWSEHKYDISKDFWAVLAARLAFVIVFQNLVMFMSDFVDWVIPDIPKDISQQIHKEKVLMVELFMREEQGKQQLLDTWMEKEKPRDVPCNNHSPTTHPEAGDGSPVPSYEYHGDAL
Assay: Inside-out patch recording of 1PBC block, mutant I516A
Assay type: cell-based
Conditions: for remaining activity at 1 µM: 1PBC 1; for remaining activity at 1 µM / remaining activity at 3 µM / remaining activity at 10 µM / remaining activity at 30 µM / remaining activity at 100 µM: read-out: fraction of unblocked current; for remaining activity at 3 µM: 1PBC 3; for remaining activity at 10 µM: 1PBC 10; for remaining activity at 30 µM: 1PBC 30; for remaining activity at 100 µM: 1PBC 100
Experimental: HEK293T cells (ATCC CRL-1573) were maintained in Dulbecco’s modified Eagle’s medium (DMEM; Sigma-Aldrich) supplemented with 10 U ml^−1 penicillin, 0.1 mg ml^−1 streptomycin (Sigma-Aldrich), 2 mM L-glutamine (Sigma-Aldrich), and 10% FBS (Sigma-Aldrich) in a humidified atmosphere containing 5% CO2 at 37 °C. HEK293S GnTI^− cells (ATCC CRL-3022) were maintained in HyClone HyCell TransFx-H medium (GE Healthcare) supplemented with 10 U ml^−1 penicillin, 0.1 mg ml^−1 streptomycin, 4 mM L-glutamine, 0.15% poloxamer 188 (Sigma-Aldrich), and 1% FBS in an atmosphere containing 5% CO2 at 185 rpm at 37 °C. The ac splice variant of mouse TMEM16A (UniProt ID: Q8BHY3), mouse TMEM16B (UniProt ID: Q8CFW1), or mouse TMEM16F (UniProt ID: Q6P9J9) bearing a 3C cleavage site, a Venus YFP, a Myc tag, and a Streptavidin-binding peptide (SBP) downstream of the open reading frame in a modified pcDNA3.1 vector (Invitrogen) were used as described previously[21],[31]. Mutations were introduced using a modified QuikChange method[58] and were verified by sequencing.
HEK293T cells were transfected with 3–4 μg DNA per 6 cm Petri dish using the calcium phosphate co-precipitation method and were used within 24–96 h after transfection. Recordings were performed on inside-out patches excised from HEK293T cells expressing the construct of interest. Patch pipettes were pulled from borosilicate glass capillaries (O.D. 1.5 mm, I.D. 0.86 mm, Sutter Instrument) and were fire-polished with a microforge (Narishige) before use. Pipette resistance was typically 3–8 MΩ when filled with the recording solutions detailed below. Seal resistance was typically 4 GΩ or higher. Voltage-clamp recordings were made using Axopatch 200B, Digidata 1550, and Clampex 10.7 (Molecular Devices). Analog signals were filtered with the in-built 4-pole Bessel filter at 10 kHz and were digitized at 20 kHz. Solution exchange was achieved using a gravity-fed system through a theta glass pipette mounted on an ultra-fast piezo-driven stepper (Siskiyou). […] All recordings were performed at 20 °C.
A symmetrical ionic condition was used throughout. Stock solution with Ca^2+-EGTA contained 150 mM NaCl, 5.99 mM Ca(OH)2, 5 mM EGTA, and 10 mM HEPES at pH 7.40. Stock solution with EGTA contained 150 mM NaCl, 5 mM EGTA, and 10 mM HEPES at pH 7.40. Free Ca^2+ concentrations were adjusted by mixing the stock solutions at the required ratios calculated using the WEBMAXC program (http://web.stanford.edu/~cpatton/webmaxcS.htm). Patch pipettes were filled with the stock solution with Ca^2+-EGTA, which has a free Ca^2+ concentration of 1 mM. 1PBC (ChemBridge) stock was reconstituted in anhydrous DMSO (Sigma-Aldrich) at 100 mM and stored at −20 °C. Working solutions with 1PBC were prepared by serial dilution. Unless otherwise stated, experiments were performed at a saturating Ca^2+ concentration as shown in Supplementary Table 1 and the primary data were corrected for current rundown as described previously[21],[25].
Concentration-response relations, obtained from the ratio of the I-V plots before and after the application of the blocker, were fitted to the Hill equation,1 I/Imax=1/1+IC50/[blocker]^h where I/Imax is the normalized current responses, IC50 defines the concentration at which inhibition is at its half-maximum, and h is the Hill coefficient.

## N#Cc1c(C(F)(F)F)cc(O)n2c1nc1ccccc12 [1PBC]
0 mV, 2 µM Ca2+
  IC50: 5.69 µM
0 mV
  remaining activity at 1 µM: 81.6%
  remaining activity at 3 µM: 66.1%
  remaining activity at 10 µM: 37.2%
  remaining activity at 30 µM: 16.3%
  remaining activity at 100 µM: 6.15%
20 mV
  remaining activity at 1 µM: 79%
  remaining activity at 3 µM: 63.1%
  remaining activity at 10 µM: 33.9%
  remaining activity at 30 µM: 15%
  remaining activity at 100 µM: 5.12%
40 mV
  remaining activity at 1 µM: 76.3%
  remaining activity at 3 µM: 60.5%
  remaining activity at 10 µM: 31.3%
  remaining activity at 30 µM: 13.7%
  remaining activity at 100 µM: 5.16%
60 mV
  remaining activity at 1 µM: 76.1%
  remaining activity at 3 µM: 57.3%
  remaining activity at 10 µM: 30.4%
  remaining activity at 30 µM: 12.5%
  remaining activity at 100 µM: 5.16%
80 mV
  remaining activity at 1 µM: 76%
  remaining activity at 3 µM: 57.5%
  remaining activity at 10 µM: 30.4%
  remaining activity at 30 µM: 12.7%
  remaining activity at 100 µM: 5.57%
  log-fold IC50 (change of mutant vs WT): 0.3402
100 mV
  remaining activity at 1 µM: 78.2%
  remaining activity at 3 µM: 58.7%
  remaining activity at 10 µM: 30.4%
  remaining activity at 30 µM: 13.1%
  remaining activity at 100 µM: 6.35%
120 mV
  remaining activity at 1 µM: 80.5%
  remaining activity at 3 µM: 60.2%
  remaining activity at 10 µM: 31.9%
  remaining activity at 30 µM: 14.6%
  remaining activity at 100 µM: 6.87%
140 mV
  remaining activity at 1 µM: 85%
  remaining activity at 3 µM: 62.8%
  remaining activity at 10 µM: 35.1%
  remaining activity at 30 µM: 16.7%
  remaining activity at 100 µM: 7.57%
-20 mV
  remaining activity at 1 µM: 84.2%
  remaining activity at 3 µM: 69.1%
  remaining activity at 10 µM: 40.4%
  remaining activity at 30 µM: 17.7%
  remaining activity at 100 µM: 7.18%
-40 mV
  remaining activity at 1 µM: 86.9%
  remaining activity at 3 µM: 74.1%
  remaining activity at 10 µM: 43.9%
  remaining activity at 30 µM: 19.9%
  remaining activity at 100 µM: 7.63%
-60 mV
  remaining activity at 1 µM: 90.5%
  remaining activity at 3 µM: 78.3%
  remaining activity at 10 µM: 48.6%
  remaining activity at 30 µM: 22.8%
  remaining activity at 100 µM: 9.24%
-80 mV
  remaining activity at 1 µM: 93.4%
  remaining activity at 3 µM: 81.5%
  remaining activity at 10 µM: 50.8%
  remaining activity at 30 µM: 25.3%
  remaining activity at 100 µM: 10.6%
-100 mV
  remaining activity at 1 µM: 94.6%
  remaining activity at 3 µM: 84.3%
  remaining activity at 10 µM: 55.1%
  remaining activity at 30 µM: 28%
  remaining activity at 100 µM: 12.4%
-120 mV
  remaining activity at 1 µM: 96.7%
  remaining activity at 3 µM: 86.9%
  remaining activity at 10 µM: 58%
  remaining activity at 30 µM: 31.5%
  remaining activity at 100 µM: 14.7%
-140 mV
  remaining activity at 1 µM: 99.6%
  remaining activity at 3 µM: 88%
  remaining activity at 10 µM: 60.3%
  remaining activity at 30 µM: 34.4%
  remaining activity at 100 µM: 17.2%
20 mV, 2 µM Ca2+
  IC50: 4.91 µM
40 mV, 2 µM Ca2+
  IC50: 4.32 µM
60 mV, 2 µM Ca2+
  IC50: 3.97 µM
80 mV, 2 µM Ca2+
  IC50: 4 µM
100 mV, 2 µM Ca2+
  IC50: 4.22 µM
120 mV, 2 µM Ca2+
  IC50: 4.6 µM
140 mV, 2 µM Ca2+
  IC50: 5.41 µM
-20 mV, 2 µM Ca2+
  IC50: 6.57 µM
-40 mV, 2 µM Ca2+
  IC50: 7.87 µM
-60 mV, 2 µM Ca2+
  IC50: 9.65 µM
-80 mV, 2 µM Ca2+
  IC50: 11 µM
-100 mV, 2 µM Ca2+
  IC50: 12.9 µM
-120 mV, 2 µM Ca2+
  IC50: 15 µM
-140 mV, 2 µM Ca2+
  IC50: 17 µM
I516A, V 0 mV
  IC50: 5.69 µM
I516A, V 20 mV
  IC50: 4.91 µM
I516A, V 40 mV
  IC50: 4.32 µM
I516A, V 60 mV
  IC50: 3.97 µM
I516A, V 80 mV
  IC50: 4 µM
I516A, V 100 mV
  IC50: 4.22 µM
I516A, V 120 mV
  IC50: 4.6 µM
I516A, V 140 mV
  IC50: 5.41 µM
I516A, V -20 mV
  IC50: 6.57 µM
I516A, V -40 mV
  IC50: 7.87 µM
I516A, V -60 mV
  IC50: 9.65 µM
I516A, V -80 mV
  IC50: 11 µM
I516A, V -100 mV
  IC50: 12.9 µM
I516A, V -120 mV
  IC50: 15 µM
I516A, V -140 mV
  IC50: 17 µM
